Source: US7473682B2, “Angiogenic peptides and uses thereof” (Ramot at Tel Aviv University Ltd., priority 2003, dated 2009)

Experiments:
mouse ischemic hind limb [1] = test: Mouse ischemic hind limb model, blood perfusion (Laser Doppler Imager); format: in vivo; details: 14 and 19 days following peptide injection, 10 μg
Experimental: (§1) Mouse ischemic hind limb model—Ischemia was created in the mouse left hind limb by ligation of the femoral artery. The right hind limb served as control. A day after the operation each of the peptides was injected into one site close to the ligation and one site distal to the ligation. Each mouse was treated with each of the peptides in a total amount of 10 μg.
Blood perfusion in ischemic mice—The percent of blood perfusion was measured using a Laser Doppler Imager (PeriMed, Sweden) at 14 and 19 days after peptides injections. The average percent perfusion of each limb was computed and expressed as the ischemic (left)/control (right) blood perfusion ratio.

[2] = tested on: ears of nude mice and Balb/C mice; test: In vivo angiogenesis in a mouse-ear model; details: for Number of blood vessels: 5 days after inoculation
Experimental: In Wivo angiogenesis in a mouse-ear model—Ear angiogenesis studies were a modification of an approach described previously (Pettersson, 2000). […] Contralateral ears were injected only with PBS. […] Two days after peptide inoculation, angiogenic effect of peptides could be observed.
Histological sections—Histological sections of the mouse-ears injected with the angiogenic peptides were performed by fixing tissues in 4% buffered formalin. Sections were embedded in paraffin blocks sectioned in 4 μm thick layers and stained with hematoxolin-eosin.

mouse ischemic hind limb [3] = test: Mouse ischemic hind limb model, physiological observations (ladder climbing); format: in vivo; set-up: key: 1 = walk and climb ... 4 = walk with difficulty, cannot climb; details: mean score of 10 mice, 10 μg
Experimental: as §1
Physiological observations—Ischemic mice were evaluated for their ability to climb a ladder on day 1, 4, 7, and 10-post operation. The scoring system was as follows: 1—walk and climb; 2—walk and climb with some difficulty, 3—walk and cannot climb the ladder; 4—walk with difficulties and cannot climb the ladder.

Row | Substance | The blood perfusion ratio (in percentages) of the ischemic vs. control limbs, Mean (mouse ischemic hind limb [1]) [percentages] | Number of blood vessels ([2]; 3 ng/ear) | Peptide/PBS = ratio between the No. of blood vessels in the peptide-injected ear and in the PBS-injected ear ([2]; mouse ears, contralateral ear PBS) | Physiological score (ability to climb a ladder) Day 1 (mouse ischemic hind limb [3]; 1 = walk and climb ... 4 = walk with difficulties and cannot climb, day 1 post operation) | Physiological score (ability to climb a ladder) Day 4 (mouse ischemic hind limb [3]; scale 1-4, day 4 post operation) | Physiological score (ability to climb a ladder) Day 7 (mouse ischemic hind limb [3]; scale 1-4, day 7 post operation) | Physiological score (ability to climb a ladder) Day 10 (mouse ischemic hind limb [3]; scale 1-4, day 10 post operation) | Number of blood vessels ([2]; 10 ng/ear) | Number of blood vessels in the ears of injected mice (photographs) ([2]; VEGF, 100 ng/mouse ear (FIG. 19a))
1 | FGF: positive control, the angiogenic molecule FGF [reference compound] | 93.438 | 11 | 2.08 | 2.57 | 2 | 1 | 1 |  | 
2 | VEGF [reference compound] |  |  |  |  |  |  |  | 17 | increased number of blood vessels
